# Assay results published in patent US20240287138A1, “CYCLIC PEPTIDES FOR INHIBITING TNF RECEPTOR 1 ACTIVITY” (Merck Sharp & Dohme LLC, priority 2023, published 2024).
# pIC50, pKd: −log10 of the molar value. Numbered stars: 1 amine (or outer) side, 2 acyl side, 3 side chain; on linkers, the order of the positions; unused ones are H or OH. Bridge positions count the residues as written; N and C are the ends. Square brackets hold non-standard residues; d marks the D form. Peptide text beside a SMILES is read from it. Trp(βS-Me,7-OMe) = COc1cccc2c([C@H](C)[C@H](N)C(=O)O)c[nH]c12; Trp(1-CH2COOH) = N[C@@H](Cc1cn(CC(=O)O)c2ccccc12)C(=O)O; Trp(βS-Me) = C[C@@H](c1c[nH]c2ccccc12)[C@H](N)C(=O)O; Phe(4-SO3H) = N[C@@H](Cc1ccc(S(=O)(=O)O)cc1)C(=O)O; Phe(4-NHCONH2) = NC(=O)Nc1ccc(C[C@H](N)C(=O)O)cc1; X69 = O=C(O)C12CC(C[C@H](N[*:1])C(=O)[*:2])(C1)C2; Trp(7-Br) = N[C@@H](Cc1c[nH]c2c(Br)cccc12)C(=O)O; Trp(7-CN) = N#Cc1cccc2c(C[C@H](N)C(=O)O)c[nH]c12; Trp(7-Cl) = N[C@@H](Cc1c[nH]c2c(Cl)cccc12)C(=O)O; Ala(piperazin-1-yl) = N[C@@H](CN1CCNCC1)C(=O)O; Phe(3-CONH2) = NC(=O)c1cccc(C[C@H](N)C(=O)O)c1; Phe(4-CONH2) = NC(=O)c1ccc(C[C@H](N)C(=O)O)cc1; Phe(4-COOH) = N[C@@H](Cc1ccc(C(=O)O)cc1)C(=O)O; Trp(7-aza) = N[C@@H](Cc1c[nH]c2ncccc12)C(=O)O; dPro(4S-NH2) = N[C@@H]1CN[C@@H](C(=O)O)C1; Pip(5R-OH) = O=C(O)[C@@H]1CC[C@@H](O)CN1; αMeW = C[C@](N)(Cc1c[nH]c2ccccc12)C(=O)O; X1 = O=C([C@@H]1CC[C@H](N[*:1])C1)[*:2]; Orn(N3) = [N-]=[N+]=NCCC[C@H](N)C(=O)O; dPro(3S-OH) = O=C(O)[C@@H]1NCC[C@@H]1O; X65 = O=C(CN(CC1(O)CC1)[*:1])[*:2]; Pip(4-aza) = O=C(O)[C@@H]1CNCCN1; 3Pal = N[C@@H](Cc1cccnc1)C(=O)O; 4Pal = N[C@@H](Cc1ccncc1)C(=O)O; NMeE = CN[C@@H](CCC(=O)O)C(=O)O; dHyp = O=C(O)[C@H]1C[C@H](O)CN1; X61 = O=C(CN(CCCO)[*:1])[*:2]; Ahp(2) = CCCCC[C@H](N)C(=O)O; Pip = O=C(O)[C@@H]1CCCCN1; αMeS = C[C@](N)(CO)C(=O)O; Nle = CCCC[C@H](N)C(=O)O; Dap = NC[C@H](N)C(=O)O; Sar = CNCC(=O)O
# Target: T1, human soluble TNFR1 (sTNFR1) (Homo sapiens, UniProt P19438)
# T1 construct: made in house; host or cells: Sf21 (baculovirus)
# T1 sequence (P19438 with tags, fused parts or gaps): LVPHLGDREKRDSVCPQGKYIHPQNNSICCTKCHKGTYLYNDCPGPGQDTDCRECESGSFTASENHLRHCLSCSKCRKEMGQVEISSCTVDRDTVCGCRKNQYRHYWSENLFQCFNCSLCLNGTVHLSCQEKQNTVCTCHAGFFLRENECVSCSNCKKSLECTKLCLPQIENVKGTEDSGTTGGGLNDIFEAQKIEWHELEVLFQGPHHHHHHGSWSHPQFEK
# Experiment: Human sTNFR1-peptide displacement assay (LanthaScreen Eu TR-FRET binding assay)
# Description: A. Procedure for Human sTNFR1-Peptide Displacement Assay
# The affinity was determined using LanthaScreen Eu-based time-resolved fluorescence resonance energy transfer (TR-FRET)-based binding assay.
# A TR-FRET assay measuring the displacement of biotinylated peptide SEQ ID NO. 1 from human soluble TNFR1 (sTNFR1) in a pre-formed complex by a macrocyclic peptide yields the affinity (Kd^app) of the cyclic peptide for sTNFR1. The reagents for the assay include: the C′-terminally 6His-tagged sTNFR1 (residues 1-211) protein purified from a Sf21 baculovirus expression system, the biotin-tagged B0372 peptide described in section “Preparation of Final Compounds”, part E, the LanthaScreen™ anti-His Tag Europium donor (Life Technologies Corporation (San Diego, CA), cat. #PV5597), and a streptavidin-conjugate Alexa Fluor™ 647 acceptor (Invitrogen (Waltham, MA), cat. #S32357). Time-resolved TR-FRET is achieved when sTNFR1 is bound to biotinylated peptide SEQ ID NO. 1 through coupling of the donor and acceptor FRET pair.
# 100 nM biotinylated peptide SEQ ID NO. […] 100 nM biotinylated peptide SEQ ID NO. 1 was chosen as it reflects the ˜Kd for this complex. After 30 min at ambient temperature, each test peptide (2 mM stock in DMSO) is titrated in a 20 point, ˜3-fold discrete dose-response using an acoustic-dispense liquid handler. Specifically, 80 nL of peptide/DMSO is transferred into a ProxiPlate-384 Plus 384-well assay plate (PerkinElmer, cat. #6008289). To this plate, 8 μL of the previously formed sTNFR 1-biotinylated peptide SEQ ID NO. 1 complex is added and allowed to reach binding equilibrium with the test peptide at ambient temperature for 90 min.
# The TR-FRET signal is measured with the following EnVision® settings: excitation laser at 337 nm; emission1=615 nm, emission2=665 nm, LANCE/DELFIA dichroic mirror, delay time=[…]. The signal of each well is determined as the ratio of the emission at 665 nm to that at 615 nm. Percent displacement is determined by normalization to control wells containing DMSO (0%) or a saturating concentration of a displaceable peptide (100%). The %-effect as a function of peptide concentration is fit to a five-parameter logistic fit based on the Morrison equation to account for tight binding kinetics.
Compound,pKd,pIC50
"CCCC[C@@H]1NC(=O)CSC[C@@H](C(N)=O)NC(=O)[C@H]([C@@H](C)c2c[nH]c3c(OC)cccc23)NC(=O)CN(C)C(=O)[C@H](Cc2ccc(O)cc2)NC(=O)[C@H](Cc2ccc(C(=O)O)cc2)NC(=O)[C@](C)(CO)NC(=O)[C@H](Cc2c[nH]c3c(Cl)cccc23)NC(=O)[C@H](Cc2ccncc2)NC(=O)[C@H](CC(N)=O)NC(=O)CN(CC2(O)CC2)C(=O)[C@H](Cc2c[nH]c3ccccc23)NC(=O)[C@@H]2CCCCN2C(=O)[C@H](Cc2ccncc2)NC1=O [SEQ ID NO. 13] ({CH2CO}-[Nle][4Pal][Pip]W[X65]N[4Pal][Trp(7-Cl)][αMeS][Phe(4-COOH)]Y[Sar][Trp(βS-Me,7-OMe)]C-NH2; thioether N-14)",9.00,
"CCCC[C@@H]1NC(=O)[C@@H]2CC[C@@H](C2)NC(=O)[C@H]([C@@H](C)c2c[nH]c3c(OC)cccc23)NC(=O)CN(C)C(=O)[C@H](Cc2ccc(C(N)=O)cc2)NC(=O)[C@H](Cc2ccc(C(N)=O)cc2)NC(=O)[C@](C)(CO)NC(=O)[C@H](Cc2c[nH]c3c(C#N)cccc23)NC(=O)[C@H](CC23CC(C(=O)O)(C2)C3)NC(=O)[C@H](CC(N)=O)NC(=O)[C@H]2C[C@H](O)CN2C(=O)[C@H](Cc2c[nH]c3ncccc23)NC(=O)[C@@H]2CC[C@@H](O)CN2C(=O)[C@H](Cc2ccncc2)NC1=O [SEQ ID NO. 26] (cyclo([4Pal][Pip(5R-OH)][Trp(7-aza)][dHyp]N[X69][Trp(7-CN)][αMeS][Phe(4-CONH2)][Phe(4-CONH2)][Sar][Trp(βS-Me,7-OMe)][X1][Nle]))",9.62,
"CCCCC[C@@H]1NC(=O)[C@@H]2CC[C@@H](C2)NC(=O)[C@H]([C@@H](C)c2c[nH]c3c(OC)cccc23)NC(=O)CN(C)C(=O)[C@H](Cc2cccc(C(N)=O)c2)NC(=O)[C@H](Cc2ccc(C(=O)O)cc2)NC(=O)[C@](C)(CO)NC(=O)[C@H](Cc2c[nH]c3c(Br)cccc23)NC(=O)[C@H](Cc2ccc(C(=O)O)cc2)NC(=O)[C@H](CC(N)=O)NC(=O)[C@H]2C[C@H](O)CN2C(=O)[C@H](Cc2c[nH]c3ccccc23)NC(=O)[C@@H]2CNCCN2C(=O)[C@H](Cc2ccncc2)NC1=O [SEQ ID NO. 85] (cyclo([4Pal][Pip(4-aza)]W[dHyp]N[Phe(4-COOH)][Trp(7-Br)][αMeS][Phe(4-COOH)][Phe(3-CONH2)][Sar][Trp(βS-Me,7-OMe)][X1][Ahp(2)]))",9.96,
C[C@@H](c1c[nH]c2ccccc12)[C@@H]1NC(=O)[C@H](CN)NC(=O)[C@H](Cc2ccc(O)cc2)NC(=O)[C@H](CCCN=[N+]=[N-])NC(=O)CSC[C@@H](C(N)=O)NC(=O)[C@](C)(Cc2c[nH]c3ccccc23)NC(=O)CN(C)C(=O)[C@H](Cc2c[nH]cn2)NC(=O)[C@H](Cc2ccc(C(=O)O)cc2)NC(=O)[C@](C)(CO)NC(=O)[C@H](Cc2c[nH]c3c(Cl)cccc23)NC(=O)[C@H](Cc2ccncc2)NC(=O)[C@H](CC(N)=O)NC(=O)[C@H]2CCCN2C1=O [SEQ ID NO. 146] ({CH2CO}-[Orn(N3)]Y[Dap][Trp(βS-Me)][dP]N[4Pal][Trp(7-Cl)][αMeS][Phe(4-COOH)]H[Sar][αMeW]C-NH2; thioether N-14),,9.23
"CCCCC[C@@H]1NC(=O)[C@@H]2CC[C@@H](C2)NC(=O)[C@H]([C@@H](C)c2c[nH]c3c(OC)cccc23)NC(=O)CN(C)C(=O)[C@H](Cc2cn(CC(=O)O)c3ccccc23)NC(=O)[C@H](Cc2ccc(C(N)=O)cc2)NC(=O)[C@](C)(CO)NC(=O)[C@H](Cc2c[nH]c3c(C#N)cccc23)NC(=O)[C@H](Cc2ccc(C(=O)O)cc2)NC(=O)[C@H](CC(N)=O)NC(=O)[C@H]2C[C@H](N)CN2C(=O)[C@H](Cc2c[nH]c3ccccc23)NC(=O)[C@@H]2CC[C@@H](O)CN2C(=O)[C@H](Cc2ccncc2)NC1=O [SEQ ID NO. 150] (cyclo([4Pal][Pip(5R-OH)]W[dPro(4S-NH2)]N[Phe(4-COOH)][Trp(7-CN)][αMeS][Phe(4-CONH2)][Trp(1-CH2COOH)][Sar][Trp(βS-Me,7-OMe)][X1][Ahp(2)]))",9.64,
"CCCC[C@@H]1NC(=O)[C@@H]2CC[C@@H](C2)NC(=O)[C@H]([C@@H](C)c2c[nH]c3c(OC)cccc23)NC(=O)CN(C)C(=O)[C@H](Cc2ccc(O)cc2)NC(=O)[C@H](Cc2ccc(C(N)=O)cc2)NC(=O)[C@](C)(CO)NC(=O)[C@H](Cc2c[nH]c3c(Cl)cccc23)NC(=O)[C@H](Cc2ccc(NC(N)=O)cc2)NC(=O)[C@H](CC(N)=O)NC(=O)[C@H](CCC(=O)O)N(C)C(=O)[C@H](Cc2c[nH]c3ccccc23)NC(=O)[C@@H]2CC[C@@H](O)CN2C(=O)[C@H](Cc2ccncc2)NC1=O [SEQ ID NO. 165] (cyclo([4Pal][Pip(5R-OH)]W[NMeE]N[Phe(4-NHCONH2)][Trp(7-Cl)][αMeS][Phe(4-CONH2)]Y[Sar][Trp(βS-Me,7-OMe)][X1][Nle]))",9.74,
"CCCC[C@@H]1NC(=O)CSC[C@@H](C(N)=O)NC(=O)[C@H]([C@@H](C)c2c[nH]c3c(OC)cccc23)NC(=O)CN(C)C(=O)[C@H](Cc2ccc(O)cc2)NC(=O)[C@H](Cc2ccc(C(=O)O)cc2)NC(=O)[C@](C)(CO)NC(=O)[C@H](Cc2c[nH]c3c(Cl)cccc23)NC(=O)[C@H](Cc2ccncc2)NC(=O)[C@H](CC(N)=O)NC(=O)CN(CCCO)C(=O)[C@H](Cc2c[nH]c3ncccc23)NC(=O)[C@@H]2CCCCN2C(=O)[C@H](Cc2ccncc2)NC1=O [SEQ ID NO. 170] ({CH2CO}-[Nle][4Pal][Pip][Trp(7-aza)][X61]N[4Pal][Trp(7-Cl)][αMeS][Phe(4-COOH)]Y[Sar][Trp(βS-Me,7-OMe)]C-NH2; thioether N-14)",9.25,9.22
"CCCC[C@@H]1NC(=O)[C@@H]2CC[C@@H](C2)NC(=O)[C@H]([C@@H](C)c2c[nH]c3c(OC)cccc23)NC(=O)CN(C)C(=O)[C@H](Cc2ccc(O)cc2)NC(=O)[C@H](Cc2ccc(C(=O)O)cc2)NC(=O)[C@](C)(CO)NC(=O)[C@H](Cc2c[nH]c3c(Cl)cccc23)NC(=O)[C@H](Cc2ccc(S(=O)(=O)O)cc2)NC(=O)[C@H](CC(N)=O)NC(=O)[C@H](CCC(=O)O)N(C)C(=O)[C@H](Cc2c[nH]c3ccccc23)NC(=O)[C@@H]2CNCCN2C(=O)[C@H](Cc2ccncc2)NC1=O [SEQ ID NO. 173] (cyclo([4Pal][Pip(4-aza)]W[NMeE]N[Phe(4-SO3H)][Trp(7-Cl)][αMeS][Phe(4-COOH)]Y[Sar][Trp(βS-Me,7-OMe)][X1][Nle]))",9.59,
"CCCC[C@@H]1NC(=O)[C@@H]2CC[C@@H](C2)NC(=O)[C@H]([C@@H](C)c2c[nH]c3c(OC)cccc23)NC(=O)CN(C)C(=O)[C@H](Cc2ccc(O)cc2)NC(=O)[C@H](Cc2ccc(C(=O)O)cc2)NC(=O)[C@](C)(CO)NC(=O)[C@H](Cc2c[nH]c3c(Cl)cccc23)NC(=O)[C@H](Cc2ccncc2)NC(=O)[C@H](CC(N)=O)NC(=O)[C@H]2[C@@H](O)CCN2C(=O)[C@H](Cc2c[nH]c3ccccc23)NC(=O)[C@@H]2CNCCN2C(=O)[C@H](Cc2ccncc2)NC1=O [SEQ ID NO. 192] (cyclo([4Pal][Trp(7-Cl)][αMeS][Phe(4-COOH)]Y[Sar][Trp(βS-Me,7-OMe)][X1][Nle][4Pal][Pip(4-aza)]W[dPro(3S-OH)]N))",9.62,
CCCCC[C@@H]1NC(=O)CSC[C@@H](C(N)=O)NC(=O)[C@](C)(Cc2c[nH]c3ccccc23)NC(=O)CN(C)C(=O)[C@H](Cc2cccnc2)NC(=O)[C@H](Cc2ccc(C(=O)O)cc2)NC(=O)[C@](C)(CO)NC(=O)[C@H](Cc2c[nH]c3c(Cl)cccc23)NC(=O)[C@H](Cc2ccncc2)NC(=O)[C@H](CC(N)=O)NC(=O)[C@H]2CCCN2C(=O)[C@H]([C@@H](C)c2c[nH]c3ccccc23)NC(=O)[C@H](CN2CCNCC2)NC(=O)[C@H](Cc2ccc(O)cc2)NC1=O [SEQ ID NO. 226] ({CH2CO}-[Ahp(2)]Y[Ala(piperazin-1-yl)][Trp(βS-Me)][dP]N[4Pal][Trp(7-Cl)][αMeS][Phe(4-COOH)][3Pal][Sar][αMeW]C-NH2; thioether N-14),,8.94
